Laboratory results from PMC7272617 (Scientific Reports, 2020).
Converted amounts (≈) assume the structure as drawn. “And” between values parts separate entries of the source, which are not always exact repeats. Equal values may be shown once. Where a SMILES comes first, the peptide text is derived from it.

Tests used:
P. aeruginosa ATCC 27853 [1] = assay: Time-killing kinetics; format: cell-based, Pseudomonas aeruginosa
Method: The bacterial killing kinetics of PA-13 was assessed by evaluating the time course to kill suspensions of P. aeruginosa ATCC 27853 as described previously. […] Plates were incubated at 37 °C to determine the number of CFU after 24 h; the assays were performed in triplicate.

P. aeruginosa ATCC 27853 [2] = assay: Membrane permeability (PI) and depolarization (BOX), flow cytometry; format: cell-based, Pseudomonas aeruginosa; conditions: for permeabilized and depolarized cells: 0.5 × MIC; for cell population BOX+PI- / cell population BOX-PI+ / cell population BOX-PI- / permeabilized and depolarized cells (BOX+PI+): 1 × MIC; for permeabilized and depolarized cells (BOX+PI+): 37 °C, triplicate
Method: Their outer and inner membranes provide important protection for Gram-negative bacteria. To assess membrane permeability and depolarization induced by PA-13, the DNA intercalating dyes propidium iodide (PI) and bis-(1,3-dibutylbarbituric acid) trimethine oxonol (BOX) were used as previously described. The fluorescence conferred by these dyes is generally associated with the loss of membrane integrity and potential, respectively.
Briefly, P. aeruginosa ATCC 27853 was cultured to mid-logarithmic phase and harvested by centrifugation at 2,000 × g for 5 min. The bacterial cells were washed thrice with PBS and diluted to 10^7 CFU/ml in 50 ml of PBS. […] Bacterial pellets were harvested and washed with PBS by centrifugation at 10,000 × g for 10 min. […] Untreated bacterial cells (no peptide) served as a negative control, whereas bacterial cells treated with melittin served as a positive control. Data was recorded using a flow cytometer (CytoFlex, Beckman Coulter) at a laser excitation wavelength of 488 nm. Forward scatter (FS), side scatter (SS), green fluorescence (530/30 nm) from BOX and red fluorescence (585/42 nm) emitted by PI were collected using logarithmic scales. 25,000 cells, defined according to their scatter parameters, were counted in each sample. The experiments were performed in triplicate and the data was analyzed using Kaluza software.

P. aeruginosa ATCC 27853 [3] = assay: Membrane-penetrating activity of TAMRA-labelled peptide, flow cytometry; format: cell-based, Pseudomonas aeruginosa; conditions: 1 × MIC, measured with TAMRA-labelled PA-13
Method: To clarify whether bacterial membrane permeabilization resulted from peptide uptake, the interaction of TAMRA-labelled PA-13 with the membrane of bacteria cells was investigated by flow cytometry. […] After incubation, unbound labelled peptide was removed by washing with PBS. Then the fluorescence signal from treated cells was determined by flow cytometry (CytoFlex, Beckman Coulter).

[4] = test system: Escherichia coli O157:H7 MT strain; conditions: E. coli O157:H7 MT strain; MHB, 37 °C, 24 h
[5] = test system: Salmonella Typhimurium ATCC 13311; conditions: ATCC 13311, 24 h
[6] = test system: Acinetobacter baumannii MT strain; conditions: MT strain, 24 h
[7] = test system: Staphylococcus epidermidis ATCC 12228; conditions: ATCC 12228, 24 h
[8] = test system: MDR P. aeruginosa clinical isolate No.11; conditions: MDR clinical isolate No.11, 24 h
[9] = test system: MDR P. aeruginosa clinical isolate No.13; conditions: MDR clinical isolate No.13, 24 h
[10] = test system: MDR P. aeruginosa clinical isolate No.14; conditions: MDR clinical isolate No.14, 24 h
[11] = test system: L929 mouse fibroblast cells; assay: Cytotoxicity, MTT viability assay; conditions: 3.91 µg/ml, 24 h

What does the source list for CC[C@H](C)[C@H](NC(=O)[C@H](CCCNC(=N)N)NC(=O)[C@H](CCCCN)NC(=O)[C@H](C)NC(=O)[C@@H](NC(=O)[C@@H](N)CCCCN)[C@@H](C)CC)C(=O)N[C@@H](Cc1c[nH]c2ccccc12)C(=O)N[C@@H](CCCCN)C(=O)N[C@H](C(=O)N[C@@H](CC(C)C)C(=O)N[C@@H](CCCNC(=N)N)C(=O)N[C@@H](CCCNC(=N)N)C(=O)N[C@@H](CCCNC(=N)N)C(N)=O)[C@@H](C)CC [PA-13] (H-KIAKRIWKILRRR-NH2; N-terminus assumed)?
P. aeruginosa count within 30 min at MIC (P. aeruginosa ATCC 27853 [1]): approximately 10^4 CFU/ml; time to complete killing (no regrowth) (P. aeruginosa ATCC 27853 [1]; at MBC): ≤ 4 h; time to eradicate most bacteria (P. aeruginosa ATCC 27853 [1]; at MIC (and MBC)): ≤ 2 h; regrowth after 24 h treatment (P. aeruginosa ATCC 27853 [1]; at MIC, result in words): regrowth was observed; P. aeruginosa count within 30 min at MBC (P. aeruginosa ATCC 27853 [1]; start 10^7 CFU/ml, MBC (7.81 μg/ml), MHB, 37 °C): ~10^2 CFU/ml; permeabilized and depolarized cells (P. aeruginosa ATCC 27853 [2]; 15 min): 72.75 ± 1.08%; permeabilized and depolarized cells (P. aeruginosa ATCC 27853 [2]; 30 min): 75.30 ± 2.68%; permeabilized and depolarized cells (P. aeruginosa ATCC 27853 [2]; 60 min): 81.66 ± 3.35%; cell population BOX+PI- (P. aeruginosa ATCC 27853 [2]; 15 min): 3.55%; cell population BOX-PI+ (P. aeruginosa ATCC 27853 [2]; 15 min): 7.74%; cell population BOX-PI- (P. aeruginosa ATCC 27853 [2]; 15 min): 0.68%; permeabilized and depolarized cells (BOX+PI+) (P. aeruginosa ATCC 27853 [2]; 15 min): 88.03 ± 3.02% and 88.03%; cell population BOX+PI- (P. aeruginosa ATCC 27853 [2]; 30 min): 5.74%; cell population BOX-PI+ (P. aeruginosa ATCC 27853 [2]; 30 min): 3.61%; cell population BOX-PI- (P. aeruginosa ATCC 27853 [2]; 30 min): 0.96%; permeabilized and depolarized cells (BOX+PI+) (P. aeruginosa ATCC 27853 [2]; 30 min): 89.69 ± 5.25% and 89.69%; cell population BOX+PI- (P. aeruginosa ATCC 27853 [2]; 60 min): 6.25%; cell population BOX-PI+ (P. aeruginosa ATCC 27853 [2]; 60 min): 1.05%; cell population BOX-PI- (P. aeruginosa ATCC 27853 [2]; 60 min): 0.62%; permeabilized and depolarized cells (BOX+PI+) (P. aeruginosa ATCC 27853 [2]; 60 min): 92.07 ± 5.15% and 92.07%; time to binding and penetration (P. aeruginosa ATCC 27853 [3]): ≤ 5 min; MIC [4]: 31.25 µg/mL (≈ 18 µM); MIC [5]: 1.95 µg/mL (≈ 1.12 µM); MIC [6]: 7.81 µg/mL (≈ 4.5 µM); MIC [7]: 3.91 µg/mL (≈ 2.25 µM); MIC [8]: 7.81 µg/mL (≈ 4.5 µM); MIC [9]: 15.63 µg/mL (≈ 9 µM); MIC [10]: 7.81 µg/mL (≈ 4.5 µM); L929 cell survival at the MIC [11]: up to 90%
